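Protocol summary: plate cells (96-well), add compound at 5 concentrations, incubate 48 h, interpolate endpoints linearly. GI50: concentration for 50% inhibition of growth. TGI: total growth inhibition.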
Experiments:
Experiment in all cases: NCI anticancer screen, dose series, 48 h
HS 578T breast = tested on: HS 578T breast
CCRF-CEM leukemia = tested on: CCRF-CEM leukemia
RXF 393 renal = tested on: RXF 393 renal
BT-549 breast = tested on: BT-549 breast
MDA-MB-435 = tested on: MDA-MB-435
KM12 colon = tested on: KM12 colon
EKVX NSCLC = tested on: EKVX NSCLC
LOX IMVI melanoma = tested on: LOX IMVI melanoma

Compound	TGI (HS 578T breast) [µM]	TGI (CCRF-CEM leukemia) [µM]	TGI (RXF 393 renal) [µM]	TGI (BT-549 breast) [µM]	TGI (MDA-MB-435) [µM]	TGI (KM12 colon) [µM]	TGI (EKVX NSCLC) [µM]	TGI (LOX IMVI melanoma) [µM]	GI50 (HS 578T breast) [µM]	GI50 (EKVX NSCLC) [µM]	GI50 (CCRF-CEM leukemia) [µM]	GI50 (MDA-MB-435) [µM]	GI50 (KM12 colon) [µM]	GI50 (LOX IMVI melanoma) [µM]
CC1(C)CC2(C)CC1CC2(O)c1ccccc1 (stereo not given)	> 100	> 100	> 100	> 100	> 100	> 100								
O=[N+]([O-])c1ccc2oc(=Nc3ccccc3)c(Nc3ccccc3)nc2c1	> 100	> 100	> 100		> 100	> 100	> 100	> 100						
CC(=O)OC1C2CCC3C(C)(O)C4CC(O)C(C)(C)C4(O)C(O)CC13CC2(C)O (stereo not given)	> 100	> 100		> 100		> 100	> 100	> 100						
COC(=O)CCc1c(Cc2ccc[nH]2)[nH]c(C(=O)OCc2ccccc2)c1C	88.5	> 100	49		32.6	35.7	91.3	35.1						
N=C(N)SCCC(=O)CCSC(=N)N	> 100	> 100	> 100		> 100	> 100		> 100						
N#C/C(=C\c1ccc([N+](=O)[O-])s1)c1nc2cc(Cl)ccc2s1	8.45	> 100			3.19	3.84	5.82		2.45	1.63	0.469	1.65	1.44	
COc1ccc(C(Cc2ccccc2)C2NC(=S)NC2=O)cc1 (stereo not given)	> 25	> 25	> 25		> 25	> 25	> 25	> 25						
CC(C)(C)CC(C)(C)NC(=S)NO	> 100	> 100	> 100		> 100	> 100	> 100	> 100						
C=C(C)C1CC/C(C)=C/CC[C@]2(C)O[C@@H]2CCC2=CC1OC2=O (stereo not given in full)		21.9			> 100	> 100		48.2			10.3	49.4	21.6	15.1
Nc1ccc(Nc2cc(=O)[nH]c(=O)[nH]2)cc1	> 100	> 100			> 100	> 100	> 100	> 100						

Source: PubChem BioAssay (NCI)
